Experiments:
cell toxicity CC50 = type: cell-based; details: human; Hep-G2 cells; mean of at least two experiments; read-out: Cell Cytotoxicity CC50
[1] = tested on: RSV (RSV A2 ECACC, 0709161v); test: RSV plaque reduction assay; type: cell-based, respiratory syncytial virus; details: human respiratory syncytial virus, HepG2, read-out: RSV A2 Plaque EC50, RSV A2 in Hep-G2 cells; mean of at least two experiments unless noted (n = 1)
Outline: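 Hep-G2 monolayers infected with 100 PFU/well RSV A2 premixed with eight serial compound dilutions (2 h, 37° C.), then kept 2 days under CMC overlay with compound in DMEM/2% FBS. Plaques immunostained (HRP/TrueBlue) and counted; % infection versus virus control gives EC50, mean of at least two experiments, rounded.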

SMILES | CC50 (cell toxicity CC50) [nM] | EC50 [1] [nM]
CN1CCN(CC2COc3c(C(=O)N[C@H]4N=C(c5ccccc5)c5cccc(F)c5NC4=O)c(-c4ccccc4F)nn3C2)CC1 (stereo partly drawn) [Example 172, N-[(3S)-9-fluoro-2-oxo-5-phenyl-1,3-dihydro-1,4-benzodiazepin-3-yl]-2-(2-fluorophenyl)-6-[(4-methylpiperazin-1-yl)methyl]-6,7-dihydro-5H-pyrazolo[5,1-b][1,3]oxazine-3-carboxamide] | > 19900 | 235
O=C(N[C@H]1N=C(c2ccccc2)c2cccc(F)c2NC1=O)c1c(-c2ccc(CN3CCOCC3)cc2F)nn2c1OCCC2 [Example 101, 2-[2-Fluoro-4-(morpholin-4-ylmethyl)phenyl]-N-[(3S)-9-fluoro-2-oxo-5-phenyl-1,3-dihydro-1,4-benzodiazepin-3-yl]-6,7-dihydro-5H-pyrazolo[5,1-b][1,3]oxazine-3-carboxamide] | > 25000 | 123
O=C(N[C@H]1N=C(c2ccccc2)c2ccccc2NC1=O)c1nn2c(c1-c1ccc(NC3CC3)nc1F)OCCC2 [Example 38, 3-[6-(Cyclopropylamino)-2-fluoropyridin-3-yl]-N-[(3S)-2-oxo-5-phenyl-1,3-dihydro-1,4-benzodiazepin-3-yl]-6,7-dihydro-5H-pyrazolo[5,1-b][1,3]oxazine-2-carboxamide] | > 25000 | 189
CC1Cn2nc(-c3ccccc3F)c(C(=O)N[C@H]3N=C(c4ccccc4)c4cccc(F)c4NC3=O)c2O1 (stereo in doubt) [Example 163, (2S)-N-[(3S)-9-fluoro-2-oxo-5-phenyl-1,3-dihydro-1,4-benzodiazepin-3-yl]-6-(2-fluorophenyl)-2-methyl-2,3-dihydropyrazolo[5,1-b][1,3]oxazole-7-carboxamide] | > 25000 | 76
C[C@@H]1CCn2nc(-c3cc(S(C)(=O)=O)ccc3F)c(C(=O)N[C@H]3N=C(c4ccccc4)c4cccc(F)c4NC3=O)c2O1 [Example 198, (5R)-2-(2-Fluoro-5-methylsulfonylphenyl)-N-[(3S)-9-fluoro-2-oxo-5-phenyl-1,3-dihydro-1,4-benzodiazepin-3-yl]-5-methyl-6,7-dihydro-5H-pyrazolo[5,1-b][1,3]oxazine-3-carboxamide] | > 25000 | 35
C[C@H]1CCn2nc(-c3ccccc3F)c(C(=O)N[C@H]3N=C(c4ccccc4)c4ccccc4NC3=O)c2O1 [Example 26, (5S)-2-(2-Fluorophenyl)-5-methyl-N-[(3S)-2-oxo-5-phenyl-1,3-dihydro-1,4-benzodiazepin-3-yl]-6,7-dihydro-5H-pyrazolo[5,1-b][1,3]oxazine-3-carboxamide] | > 25000 | 43
C[C@@H]1COc2c(C(=O)N[C@H]3N=C(c4ccccc4)c4cccc(F)c4NC3=O)c(-c3ccccc3F)nn2C1 [Example 9, (6S)-N-[(3S)-9-fluoro-2-oxo-5-phenyl-1,3-dihydro-1,4-benzodiazepin-3-yl]-2-(2-fluorophenyl)-6-methyl-6,7-dihydro-5H-pyrazolo[5,1-b][1,3]oxazine-3-carboxamide] | > 18800 | 30
CC(C)Nc1ccc(-c2nn3c(c2C(=O)N[C@H]2N=C(c4ccccc4)c4cccc(F)c4NC2=O)O[C@H](C)CC3)c(F)n1 [Example 30, (5R)-N-[(3S)-9-fluoro-2-oxo-5-phenyl-1,3-dihydro-1,4-benzodiazepin-3-yl]-2-[2-fluoro-6-(propan-2-ylamino)pyridin-3-yl]-5-methyl-6,7-dihydro-5H-pyrazolo[5,1-b][1,3]oxazine-3-carboxamide] | > 25000 | 16
O=C(N[C@H]1N=C(c2ccccc2)c2ccccc2NC1=O)c1c(-c2cccnc2F)nn2c1OCCC2 [Example 136, 2-(2-Fluoropyridin-3-yl)-N-[(3S)-2-oxo-5-phenyl-1,3-dihydro-1,4-benzodiazepin-3-yl]-6,7-dihydro-5H-pyrazolo[5,1-b][1,3]oxazine-3-carboxamide] | > 25000 | 182
C[C@@H]1CCn2nc(-c3ccc(N4CCOCC4)nc3)c(C(=O)N[C@H]3N=C(c4ccccc4)c4ccccc4NC3=O)c2O1 [Example 55, (5R)-5-Methyl-2-(6-morpholino-3-pyridyl)-N-[(3S)-2-oxo-5-phenyl-1,3-dihydro-1,4-benzodiazepin-3-yl]-6,7-dihydro-5H-pyrazolo[5,1-b][1,3]oxazine-3-carboxamide] | > 25000 | 246
C[C@H]1CCn2nc(-c3cnn(C4CCOCC4)c3)c(C(=O)N[C@H]3N=C(c4ccccc4)c4cccc(F)c4NC3=O)c2O1 [Example 156, (5S)-N-[(3S)-9-fluoro-2-oxo-5-phenyl-1,3-dihydro-1,4-benzodiazepin-3-yl]-5-methyl-2-[1-(oxan-4-yl)pyrazol-4-yl]-6,7-dihydro-5H-pyrazolo[5,1-b][1,3]oxazine-3-carboxamide] | > 25000 | 39
Cc1ccc(-c2nn3c(c2C(=O)N[C@H]2N=C(c4ccccc4)c4cccc(F)c4NC2=O)O[C@H](C)CC3)cn1 [Example 77, (5R)-5-Methyl-2-(6-methylpyridin-3-yl)-N-[(3S)-9-fluoro-2-oxo-5-phenyl-1,3-dihydro-1,4-benzodiazepin-3-yl]-6,7-dihydro-5H-pyrazolo[5,1-b][1,3]oxazine-3-carboxamide] | > 25000 | 159
O=C(N[C@H]1N=C(c2ccccc2)c2cccc(F)c2NC1=O)c1c(-c2ccccc2F)nn2c1OCC1(CC1)C2 [Example 13] | > 24000 | 28
CCc1ccc(-c2nn3c(c2C(=O)N[C@H]2N=C(c4ccccc4)c4ccccc4NC2=O)OCC2(CCC2)C3)cn1 [Example 176, 2-(6-Ethylpyridin-3-yl)-N-[(3S)-2-oxo-5-phenyl-1,3-dihydro-1,4-benzodiazepin-3-yl]spiro[5,7-dihydropyrazolo[5,1-b][1,3]oxazine-6,1′-cyclobutane]-3-carboxamide] | > 25000 | 63
CC1CCn2nc(Cc3ccccc3)c(C(=O)N[C@H]3N=C(c4ccccc4)c4cccc(F)c4NC3=O)c2O1 (stereo in doubt) [Example 109, (5S)-2-Benzyl-N-[(3S)-9-fluoro-2-oxo-5-phenyl-1,3-dihydro-1,4-benzodiazepin-3-yl]-5-methyl-6,7-dihydro-5H-pyrazolo[5,1-b][1,3]oxazine-3-carboxamide] | > 25000 | 114
CN(C)CC1CCn2nc(-c3ccccc3F)c(C(=O)N[C@H]3N=C(c4ccccc4)c4cccc(F)c4NC3=O)c2O1 (stereo partly drawn) [Example 166, 5-[(Dimethylamino)methyl]-N-[(3S)-9-fluoro-2-oxo-5-phenyl-1,3-dihydro-1,4-benzodiazepin-3-yl]-2-(2-fluorophenyl)-6,7-dihydro-5H-pyrazolo[5,1-b][1,3]oxazine-3-carboxamide] | > 25000 | 201
Cn1ncc2c(-c3nn4c(c3C(=O)N[C@H]3N=C(c5ccccc5)c5cccc(F)c5NC3=O)OCCC4)cccc21 [Example 147, N-[(3S)-9-fluoro-2-oxo-5-phenyl-1,3-dihydro-1,4-benzodiazepin-3-yl]-2-(1-methylindazol-4-yl)-6,7-dihydro-5H-pyrazolo[5,1-b][1,3]oxazine-3-carboxamide] | > 25000 | 137

— patent US12678446B2 (PFIZER INC., priority 2020, dated 2026)
